Assay results as given in patent US20180170903A1, “PYRIDIN-3-YL ACETIC ACID DERIVATIVES AS INHIBITORS OF HUMAN IMMUNODEFICIENCY VIRUS REPLICATION” (ViiV HEALTHCARE UK (NO.5) LIMITED, priority 2015, published 2018).

What follows are compounds tested on NL-RLuc virus (recombinant HIV NL4-3 proviral clone with Renilla Luciferase) in MT-2 cells (assay: Inhibition of HIV Replication (NL-RLuc luciferase reporter virus, MT-2 cells)). Settings: MT2, 120 h, read-out: Activity.
Format: cell-based
Text: Inhibition of HIV Replication:
A recombinant NL-RLuc proviral clone was constructed in which a section of the nef gene from NL4-3 was replaced with the Renilla Luciferase gene. This virus is fully infectious and can undergo multiple cycles of replication in cell culture. In addition, the luciferous reporter provides a simple and easy method for quantitating the extent of virus growth and consequently, the antiviral activity of test compounds. The plasmid pNLRLuc contains the proviral NL-Rluc DNA cloned into pUC 18 at the PvuII site. The NL-RLuc virus was prepared by transfection of 293T cells with the plasmid pNLRLuc. Transfections were performed using the LipofectAMINE PLUS kit from Invitrogen (Carlsbad, Calif.) according to the manufacturer and the virus generated was titered in MT-2 cells. For susceptibility analyses, the titrated virus was used to infect MT-2 cells in the presence of compound, and after 5 days of incubation, cells were processed and quantitated for virus growth by the amount of expressed luciferase. Assay media was RPMI 1640 supplemented with 10% heat inactivated fetal bovine serum (FBS), 100 units/ml penicillin G/100 units/ml streptomycin, 10 mM HEPES buffer pH 7.55 and 2 mM L-glutamine. The results from at least 2 experiments were used to calculate the EC50 values. Luciferase was quantitated using the Dual Luciferase kit from Promega (Madison, Wis.). Susceptibility of viruses to compounds was determined by incubation in the presence of serial dilutions of the compound. The 50% effective concentration (EC50) was calculated by using the exponential form of the median effect equation where (Fa)=1/[1+(ED50/drug conc.)^m](Johnson V A, Byington R T. Infectivity Assay. In Techniques in HIV Research. ed. Aldovini A, Walker B D. 71-76. New York: Stockton Press. 1990). Activity equal to A refers to a compound having an EC50≤100 nM, while B and C denote compounds having an EC50 between 100 nM and 1 uM (B) or >1 uM (C).
With `CC(=O)N(Cc1ccc(F)cc1)Cc1ccc(-c2c(C)nc(C)c([C@H](OC(C)(C)C)C(=O)O)c2N2CCC(C)(C)CC2)cc1` [Example 24, (S)-2-(tert-butoxy)-2-(4-(4,4-dimethylpiperidin-1-yl)-5-(4-((N-(4-fluorobenzyl)acetamido)methyl)phenyl)-2,6-dimethylpyridin-3-yl)acetic acid] the EC50 was under 0.1 µM. `Cc1nc(C)c([C@H](OC(C)(C)C)C(=O)O)c(N2CCC(C)(C)CC2)c1-c1ccc(CN(Cc2ccc(F)cc2)C(=O)C(C)(C)C)cc1` [Example 25, (S)-2-(tert-butoxy)-2-(4-(4,4-dimethylpiperidin-1-yl)-5-(4-((N-(4-fluorobenzyl)pivalamido)methyl)phenyl)-2,6-dimethylpyridin-3-yl)acetic acid] was tested, and the EC50 was under 0.1 µM. `COc1ccccc1C(=O)N(Cc1ccc(F)cc1)Cc1ccc(-c2c(C)nc(C)c([C@H](OC(C)(C)C)C(=O)O)c2N2CCC(C)(C)CC2)cc1` [Example 26, (S)-2-(tert-butoxy)-2-(4-(4,4-dimethylpiperidin-1-yl)-5-(4-((N-(4-fluorobenzyl)-2-methoxybenzamido)methyl)phenyl)-2,6-dimethylpyridin-3-yl)acetic acid] gave an EC50 of under 0.1 µM. In the case of `Cc1nc(C)c([C@H](OC(C)(C)C)C(=O)O)c(N2CCC(C)(C)CC2)c1-c1ccc(CN(Cc2ccc(F)cc2)C(=O)c2ccccc2F)cc1` [Example 27, (S)-2-(tert-butoxy)-2-(4-(4,4-dimethylpiperidin-1-yl)-5-(4-((2-fluoro-N-(4-fluorobenzyl)benzamido)methyl)phenyl)-2,6-dimethylpyridin-3-yl)acetic acid], the EC50 is reported as under 0.1 µM. Work on `Cc1nc(C)c([C@H](OC(C)(C)C)C(=O)O)c(N2CCC(C)(C)CC2)c1-c1ccc(CN(Cc2ccc(F)cc2)C(=O)c2ccc(F)cc2)cc1` [Example 28, (S)-2-(tert-butoxy)-2-(4-(4,4-dimethylpiperidin-1-yl)-5-(4-((4-fluoro-N-(4-fluorobenzyl)benzamido)methyl)phenyl)-2,6-dimethylpyridin-3-yl)acetic acid] yielded an EC50 of under 0.1 µM. Work on `Cc1cc(C(=O)N(Cc2ccc(F)cc2)Cc2ccc(-c3c(C)nc(C)c([C@H](OC(C)(C)C)C(=O)O)c3N3CCC(C)(C)CC3)cc2)c(C)o1` [Example 29, (S)-2-(terr-butoxy)-2-(4-(4,4-dimethylpiperidin-1-yl)-5-(4-((N-(4-fluorobenzyl)-2,5-dimethylfuran-3-carboxamido)methyl)phenyl)-2,6-dimethylpyridin-3-yl)acetic acid] yielded an EC50 of under 0.1 µM. `Cc1nc(C)c([C@H](OC(C)(C)C)C(=O)O)c(N2CCC(C)(C)CC2)c1-c1ccc(CN(Cc2ccc(F)cc2)C(=O)COc2ccccc2)cc1` [Example 30, (S)-2-(tert-butoxy)-2-(4-(4,4-dimethylpiperidin-1-yl)-5-(4-((N-(4-fluorobenzyl)-2-phenoxyacetamido)methyl)phenyl)-2,6-dimethylpyridin-3-yl)acetic acid] gave an EC50 of 0.1 to 1 µM. In the case of `Cc1nc(C)c([C@H](OC(C)(C)C)C(=O)O)c(N2CCC(C)(C)CC2)c1-c1ccc(CN(Cc2ccc(F)cc2)C(=O)OCc2ccccc2)cc1` [Example 31, (S)-2-(5-(4-((((benzyloxy)carbonyl)(4-fluorobenzyl)amino)methyl)phenyl)-4-(4,4-dimethylpiperidin-1-yl)-2,6-dimethylpyridin-3-yl)-2-(tert-butoxy)acetic acid], the EC50 is reported as under 0.1 µM. `COC(=O)N(Cc1ccc(F)cc1)Cc1ccc(-c2c(C)nc(C)c([C@H](OC(C)(C)C)C(=O)O)c2N2CCC(C)(C)CC2)cc1` [Example 32, (S)-2-(tert-butoxy)-2-(4-(4,4-dimethylpiperidin-1-yl)-5-(4-(((4-fluorobenzyl)(methoxycarbonyl)amino)methyl)phenyl)-2,6-dimethylpyridin-3-yl)acetic acid] gave an EC50 of under 0.1 µM. For `CCOC(=O)N(Cc1ccc(F)cc1)Cc1ccc(-c2c(C)nc(C)c([C@H](OC(C)(C)C)C(=O)O)c2N2CCC(C)(C)CC2)cc1` [Example 33, (S)-2-(tert-butoxy)-2-(4-(4,4-dimethylpiperidin-1-yl)-5-(4-(((ethoxycarbonyl)(4 fluorobenzyl)amino)methyl)phenyl)-2,6-dimethylpyridin-3-yl)acetic acid], the EC50 was under 0.1 µM. For `Cc1nc(C)c([C@H](OC(C)(C)C)C(=O)O)c(N2CCC(C)(C)CC2)c1-c1ccc(CN(Cc2ccc(F)cc2)S(C)(=O)=O)cc1` [Example 34, (S)-2-(tert-butoxy)-2-(4-(4,4-dimethylpiperidin-1-yl)-5-(4-((N-(4-fluorobenzyl)methylsulfonamido)methyl)phenyl)-2,6-dimethylpyridin-3-yl)acetic acid], the EC50 was under 0.1 µM. Compound `Cc1nc(C)c([C@H](OC(C)(C)C)C(=O)O)c(N2CCC(C)(C)CC2)c1-c1ccc(CN(Cc2ccc(F)cc2)C(=O)N2CCCC2)cc1` [Example 35, (S)-2-(tert-butoxy)-2-(4-(4,4-dimethylpiperidin-1-yl)-5-(4-((N-(4-fluorobenzyl)pyrrolidine-1-carboxamido)methyl)phenyl)-2,6-dimethylpyridin-3-yl)acetic acid] has an EC50 of under 0.1 µM. `Cc1nc(C)c([C@H](OC(C)(C)C)C(=O)O)c(N2CCC(C)(C)CC2)c1-c1ccc(CN(Cc2ccc(F)cc2)S(=O)(=O)c2ccccc2)cc1` [Example 36, (S)-2-(tert-butoxy)-2-(4-(4,4-dimethylpiperidin-1-yl)-5-(4-((N-(4-fluorobenzyl)phenylsulfonamido)methyl)phenyl)-2,6-dimethylpyridin-3-yl)acetic acid] showed an EC50 of under 0.1 µM. Work on `COc1cccc(C(=O)N(Cc2ccc(F)cc2)Cc2ccc(-c3c(C)nc(C)c([C@H](OC(C)(C)C)C(=O)O)c3N3CCC(C)(C)CC3)cc2)c1` [Example 37, (S)-2-(tert-butoxy)-2-(4-(4,4-dimethylpiperidin-1-yl)-5-(4-((N-(4-fluorobenzyl)-3-methoxybenzamido)methyl)phenyl)-2,6-dimethylpyridin-3-yl)acetic acid] yielded an EC50 of under 0.1 µM. `Cc1nc(C)c([C@H](OC(C)(C)C)C(=O)O)c(N2CCC(C)(C)CC2)c1-c1ccc(CN(Cc2ccc(F)cc2)C(=O)c2cccc(C(F)(F)F)c2)cc1` [Example 38, (S)-2-(tert-butoxy)-2-(4-(4,4-dimethylpiperidin-1-yl)-5-(4-((N-(4-fluorobenzyl)-3-(trifluoromethyl)benzamio)methyl)phenyl)-2,6-dimethylpyridin-3-yl)acetic acid] was tested, and the EC50 was under 0.1 µM. With `Cc1nc(C)c([C@H](OC(C)(C)C)C(=O)O)c(N2CCC(C)(C)CC2)c1-c1ccc(CN(Cc2ccc(F)cc2)C(=O)c2ccccc2C(F)(F)F)cc1` [Example 39, (S)-2-(tert-butoxy)-2-(4-(4,4-dimethylpiperidin-1-yl)-5-(4-((N-(4-fluorobenzyl)-2-(trifluoromethyl)benzamido)methyl)phenyl)-2,6-dimethylpyridin-3-yl)acetic acid] the EC50 was under 0.1 µM. For `Cc1nc(C)c([C@H](OC(C)(C)C)C(=O)O)c(N2CCC(C)(C)CC2)c1-c1ccc(CN(Cc2ccc(F)cc2)C(=O)C2CC2)cc1` [Example 40, (S)-2-(tert-butoxy)-2-(4-(4,4-dimethylpiperidin-1-yl)-5-(4-((N-(4-fluorobenzyl)cyclopropanecarboxamido)methyl)phenyl)-2,6-dimethylpyridin-3-yl)acetic acid], the EC50 was under 0.1 µM. `Cc1nc(C)c([C@H](OC(C)(C)C)C(=O)O)c(N2CCC(C)(C)CC2)c1-c1ccc(CN(Cc2ccc(F)cc2)C(=O)c2cccc(F)c2)cc1` [Example 41, (S)-2-(tert-butoxy)-2-(4-(4,4-dimethylpiperidin-1-yl)-5-(4-((3-fluoro-N-(4-fluorobenzyl)benzamido)methyl)phenyl)-2,6-dimethylpyridin-3-yl)acetic acid] showed an EC50 of under 0.1 µM. `Cc1nc(C)c([C@H](OC(C)(C)C)C(=O)O)c(N2CCC(C)(C)CC2)c1-c1ccc(CN(Cc2ccc(F)cc2)C(=O)C2CCC2)cc1` [Example 42, (S)-2-(tert-butoxy)-2-(4-(4,4-dimethylpiperidin-1-yl)-5-(4-((N-(4-fluorobenzyl)cyclobutanecarboxamido)methyl)phenyl)-2,6-dimethylpyridin-3-yl)acetic acid] showed an EC50 of under 0.1 µM. `Cc1ccccc1C(=O)N(Cc1ccc(F)cc1)Cc1ccc(-c2c(C)nc(C)c([C@H](OC(C)(C)C)C(=O)O)c2N2CCC(C)(C)CC2)cc1` [Example 43, (S)-2-(tert-butoxy)-2-(4-(4,4-dimethylpiperidin-1-yl)-5-(4-((N-(4-fluorobenzyl)-2-methylbenzamido)methyl)phenyl)-2,6-dimethylpyridin-3-yl)acetic acid] was tested, and the EC50 was under 0.1 µM. In the case of `Cc1nc(C)c([C@H](OC(C)(C)C)C(=O)O)c(N2CCC(C)(C)CC2)c1-c1ccc(CN(Cc2ccc(F)cc2)C(=O)c2cccs2)cc1` [Example 44, (S)-2-(tert-butoxy)-2-(4-(4,4-dimethylpiperidin-1-yl)-5-(4-((N-(4-fluorobenzyl)thiophene-2-carboxamido)methyl)phenyl)-2,6-dimethylpyridin-3-yl)acetic acid], the EC50 is reported as under 0.1 µM.

Same assay, conditions: MT2, 120 h, read-out: EC50 μM
`Cc1nc(C)c([C@H](OC(C)(C)C)C(=O)O)c(N2CCC(C)(C)CC2)c1-c1ccc(CN(Cc2ccc(F)cc2)C(=O)c2ccccc2F)cc1` [Example 27, (S)-2-(tert-butoxy)-2-(4-(4,4-dimethylpiperidin-1-yl)-5-(4-((2-fluoro-N-(4-fluorobenzyl)benzamido)methyl)phenyl)-2,6-dimethylpyridin-3-yl)acetic acid] gave an EC50 of 0.008 µM. In the case of `Cc1nc(C)c([C@H](OC(C)(C)C)C(=O)O)c(N2CCC(C)(C)CC2)c1-c1ccc(CN(Cc2ccc(F)cc2)C(=O)COc2ccccc2)cc1` [Example 30, (S)-2-(tert-butoxy)-2-(4-(4,4-dimethylpiperidin-1-yl)-5-(4-((N-(4-fluorobenzyl)-2-phenoxyacetamido)methyl)phenyl)-2,6-dimethylpyridin-3-yl)acetic acid], the EC50 is reported as 0.118 µM. `Cc1nc(C)c([C@H](OC(C)(C)C)C(=O)O)c(N2CCC(C)(C)CC2)c1-c1ccc(CN(Cc2ccc(F)cc2)C(=O)c2cccc(F)c2)cc1` [Example 41, (S)-2-(tert-butoxy)-2-(4-(4,4-dimethylpiperidin-1-yl)-5-(4-((3-fluoro-N-(4-fluorobenzyl)benzamido)methyl)phenyl)-2,6-dimethylpyridin-3-yl)acetic acid] showed an EC50 of 0.015 µM.
